Among the data in US20230322724A1, “HETEROCYCLIC COMPOUNDS AS CBP/EP300 BROMODOMAIN INHIBITORS” (AURIGENE ONCOLOGY LIMITED, priority 2020, published 2023) are IC50 and inhibition values, retold here.

For assay [1], the target named is T1, recombinant P300 bromodomain (Homo sapiens, UniProt Q09472).
T1 construct: recombinant P300 bromodomain obtained from BPS Bioscience, USA; purchased BPS Bioscience, USA
T1 sequence (Q09472 1049-1156 limits assumed): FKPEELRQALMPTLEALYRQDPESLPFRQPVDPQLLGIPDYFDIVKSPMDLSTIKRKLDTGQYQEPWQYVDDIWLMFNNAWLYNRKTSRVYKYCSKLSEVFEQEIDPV
Put plainly: P300 TR-FRET displacement assay. Format: binding. To be noted: dose-response, read-out: IC50 (group A, B, C). The protocol: The potency of compounds to inhibit P300 enzyme was tested in a TR-FRET displacement assay using recombinant P300 bromodomain obtained from BPS Bioscience, USA. The assay buffer was 50 mM HEPES (pH 7.5), 50 mM NaCl, 0.008% Brij 35, 0.01% BSA, 1 mM TCEP. 50 nM of P300 & 500 nM of Biotinylated ligand was incubated at room temperature for 30 minutes, the reaction was initiated by adding the pre-incubated enzyme ligand mixture to the test compounds. After 60 min incubation, the reaction was stopped by the addition of stop mix containing 1 nM of LANCE Europium-anti-6xHis antibody (Perkin Elmer, USA) and 40 nM of Sure Light Allophycocyanin-Streptavidin (Perkin Elmer, USA). Fluorescence emission of the samples at 665 and 615 nm were measured at an excitation of 340 nm and their ratio was plotted against the compound concentrations to generate dose-response curve.
Selected compounds of the present invention were screened in the above-mentioned assay procedures and IC50 values were determined by fitting the dose-response data to sigmoidal curve fitting equation using Graph pad prism software V7.

For assay [2], the target named is T2, recombinant CREBBP bromodomain (Homo sapiens, UniProt Q92793).
T2 construct: recombinant CREBBP bromodomain obtained from BPS Bioscience, USA; purchased BPS Bioscience, USA
Put plainly: CBP TR-FRET displacement assay. Format: binding. To be noted: for IC50: dose-response, read-out: IC50 (group A, B, C); for inhibition at 10 µM: compound at 10 μM. Summed up:
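CREBBP bromodomain (50 nM) preincubated 30 min at room temperature with 500 nM biotinylated ligand in HEPES pH 7.5 buffer with TCEP, then 60 min with compound. Eu-anti-His/APC-streptavidin TR-FRET 665/615 nm ratio read; IC50 from sigmoidal dose-response fit.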
On the technique in general: Time-resolved FRET reads energy transfer from a long-lived donor to a nearby acceptor.

Values joined by “and” are separate entries in the source; they are usually repeats but may differ in a detail not shown here. Identical values can stand only once.

T2 sequence (Q92793 1085-1192 limits assumed): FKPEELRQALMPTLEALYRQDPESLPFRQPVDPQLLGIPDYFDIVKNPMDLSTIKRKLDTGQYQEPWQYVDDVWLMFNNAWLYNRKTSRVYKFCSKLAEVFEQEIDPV

What is called IC50 is the concentration that gives 50% inhibition. For the molecule `COc1ccc(CN2CCN(c3cc(OC)cc4c3cc(C)c(=O)n4C)c3cc(C#N)c(-c4cnn(C)c4)cc32)cc1` [Example 8, 4-(7-methoxy-1,3-dimethyl-2-oxo-1,2-dihydroquinolin-5-yl)-1-(4-methoxybenzyl)-7-(1-methyl-1H-pyrazol-4-yl)-1,2,3,4-tetrahydroquinoxaline-6-carbonitrile], the IC50 is over 50000 nM in assay [1] and over 10 nM in assay [2].
For `COc1cc(N2CCN(C)c3cc(-c4ccnn4C)c(C#N)cc32)c2cc(C)c(=O)n(C)c2c1` [Example 9], the IC50 in assay [1] was under 25 nM; in assay [2], under 50 nM.
As for `COc1cc(N2CCN(C)c3cc(-n4cc(C)cn4)c(C#N)cc32)c2cc(C)c(=O)n(C)c2c1` [Example 10], the values for the IC50 in assay [1] and in assay [2] were 25 to 50 nM and under 50 nM, respectively.
For `CNC(=O)c1ccc(-c2cc3c(cc2C#N)N(c2cc(OC)cc4c2cc(C)c(=O)n4C)CCN3C)cn1` [Example 11], the concentration for half-maximal inhibition (IC50) in assay [1] was under 25 nM; in assay [2], under 50 nM.
Take `COc1cc(N2CCN(C)c3cc(-c4c(C)nn(C)c4C)c(C#N)cc32)c2cc(C)c(=O)n(C)c2c1` [Example 12]: the figures for the 50% inhibitory concentration (IC50) in assay [1] and in assay [2] were under 25 nM and under 50 nM, respectively.
On the same counts, the results for `COc1cc(N2CC(C)N(C)c3cc(-c4cnn(C)c4)c(C#N)cc32)c2cc(C)c(=O)n(C)c2c1` (stereo not drawn) [Example 13] are under 25 nM and under 50 nM.
Consider `COc1cc(N2CCN(C)c3cc(-c4ccn(C)n4)c(C#N)cc32)c2cc(C)c(=O)n(C)c2c1` [Example 14], for which the results for the IC50 in assay [1] and in assay [2] were under 25 nM and under 50 nM, respectively.
Turning to `COc1cc(N2CCN(C)c3cc(-c4cccnc4)c(C#N)cc32)c2cc(C)c(=O)n(C)c2c1` [Example 15], the IC50 was 25 to 50 nM in assay [1] and under 50 nM in assay [2].
In the case of `COc1cc(N2CCN(C)c3cc(-c4cnc(O)nc4)c(C#N)cc32)c2cc(C)c(=O)n(C)c2c1` [Example 16], the values for the IC50 in assay [1] and in assay [2] were under 25 nM and under 50 nM, respectively.
Regarding `COc1cc(N2CCN(C)c3cc(C4=CCN(C)CC4)c(C#N)cc32)c2cc(C)c(=O)n(C)c2c1` [Example 17], the figures for the IC50 in assay [1] and in assay [2] were over 50000 nM and under 50 nM, respectively.
Take `COc1cc(N2CCN(C)c3cc(N4CCOCC4)c(C#N)cc32)c2cc(C)c(=O)n(C)c2c1` [Example 18]: the concentration for half-maximal inhibition (IC50) is 25 to 50 nM in assay [1] and under 50 nM in assay [2].
For the molecule `COc1cc(N2CCN(C)c3cc(N4CCN(C)CC4)c(C#N)cc32)c2cc(C)c(=O)n(C)c2c1` [Example 19], the IC50 in assay [1] was 25 to 50 nM; in assay [2], under 50 nM.
For `COc1cc(N2CCN(C)c3cc(N4CCC(O)C4)c(C#N)cc32)c2cc(C)c(=O)n(C)c2c1` (stereo not drawn) [Example 20] the same measures were 25 to 50 nM and under 50 nM.
As to `COc1cc(N2CCN(C)c3cc(N4CCN(C(C)=O)CC4)c(C#N)cc32)c2cc(C)c(=O)n(C)c2c1` [Example 23], the results for the IC50 in assay [1] and in assay [2] were under 25 nM and under 50 nM, respectively.
In the case of `COc1cc(N2CCN(C3CC3)c3cc(N4CCN(C)CC4)c(C#N)cc32)c2cc(C)c(=O)n(C)c2c1` [Example 25], the IC50 in assay [1] is 25 to 50 nM; in assay [2], under 50 nM.
As usually defined, the inhibition is the drop in the measured response relative to a control, in per cent. For the molecule `Cc1cc2c(N3CCN(C)c4cc(-c5cnn(C)c5)c(C#N)cc43)cc(OCC3CCCN(C)C3)cc2n(C)c1=O` (stereo not drawn) [Example 35], the IC50 in assay [1] was under 25 nM. Moreover, in assay [2], the inhibition at 10 µM turned out to be 96% and the IC50 was under 50 nM.
With `Cc1cc2c(N3CCN(C)c4cc(-c5cnn(C)c5)c(C#N)cc43)cc(OCCN3CCOCC3)cc2n(C)c1=O` [Example 36], the IC50 in assay [1] is under 25 nM. Besides, in assay [2], the inhibition at 10 µM amounted to 100% and the IC50 was under 50 nM.
For `COCCOc1cc(N2CCN(C)c3cc(-c4cnn(C)c4)c(C#N)cc32)c2cc(C)c(=O)n(C)c2c1` [Example 37] the same measures were under 25 nM, 100% and under 50 nM.
For `Cc1ccc2[nH]c(=O)c(C)cc2c1N1CCN(C)c2cc(-c3cnn(C)c3)c(C#N)cc21` [Example 38], in assay [1], the IC50 is over 50000 nM. In addition, in assay [2], the inhibition at 10 µM was determined as 98% and the IC50 was under 50 nM.
Regarding `Cc1cc2c(N3CCN(C)c4cc(-c5cnn(C)c5)c(C#N)cc43)cc(OCCN(C)C)cc2n(C)c1=O` [Example 39], the values for the IC50 in assay [1] and in assay [2] were under 25 nM and under 50 nM, respectively.
For `Cc1cc2c(N3CCN(C)c4cc(-c5cnn(C)c5)c(C#N)cc43)cc(OC3COC3)cc2n(C)c1=O` [Example 40] the same measures were 25 to 50 nM and under 50 nM.
On the same counts, the results for `Cc1cc2c(N3CCN(C)c4cc(-c5cnn(C)c5)c(F)cc43)cc(N3CCOCC3)cc2n(C)c1=O` [Example 48] are under 25 nM and under 50 nM.
On to `Cc1cc2c(N3CCN(C)c4cc(-c5cnn(C)c5)c(C#N)cc43)nccc2[nH]c1=O` [Example 54], for which the IC50 in assay [1] was over 50000 nM. In addition, in assay [2], the inhibition at 10 µM came to 91% and the IC50 is over 10 nM.
For `Cc1cc2c(N3CCN(C)c4cc(-c5cnn(C)c5)c(C=O)cc43)cccc2[nH]c1=O` [Example 57, 1-Methyl-7-(1-methyl-1H-pyrazol-4-yl)-4-(3-methyl-2-oxo-1,2-dihydroquinolin-5-yl)-1,2,3,4-tetrahydroquinoxaline-6-carbaldehyde], the 50% inhibitory concentration (IC50) in assay [1] is over 50000 nM; in assay [2] it was over 10 nM.
On to `Cc1cc2c(N3CCN(C)c4cc(-c5cnn(C)c5)c(C#N)cc43)cc(OCCO)cc2n(C)c1=O` [Example 60, 4-(7-(2-Hydroxyethoxy)-1,3-dimethyl-2-oxo-1,2-dihydroquinolin-5-yl)-1-methyl-7-(1-methyl-1H-pyrazol-4-yl)-1,2,3,4-tetrahydroquinoxaline-6-carbonitrile], for which the half-inhibitory concentration (IC50) was under 25 nM in assay [1] and under 50 nM in assay [2].
In the case of `COc1cc(N2CCNc3cc(-c4cnn(C)c4)c(C#N)cc32)c2cc(C)c(=O)n(C)c2c1` [Example 62, 4-(7-methoxy-1,3-dimethyl-2-oxo-1,2-dihydroquinolin-5-yl)-7-(1-methyl-1H-pyrazol-4-yl)-1,2,3,4-tetrahydroquinoxaline-6-carbonitrile], the IC50 in assay [1] is 25 to 50 nM; in assay [2], over 10 nM.
Turning to `COC(=O)c1cc2c(cc1C#N)N(c1cc(OC)cc3c1cc(C)c(=O)n3C)CCN2C` [Example 67, methyl 7-cyano-1-(7-methoxy-1,3-dimethyl-2-oxo-1,2-dihydroquinolin-5-yl)-4-methyl-1,2,3,4-tetrahydroquinoxaline-6-carboxylate], the results for the IC50 in assay [1] and in assay [2] were 25 to 50 nM and under 50 nM, respectively.
On the same counts, the results for `Cc1cc2c(N3CCN(C)c4cc(-c5cnn(C)c5)c(C#N)cc43)cc(OCC(=O)O)cc2n(C)c1=O` [Example 71, 2-((5-(7-Cyano-4-methyl-6-(1-methyl-1H-pyrazol-4-yl)-3,4-dihydroquinoxalin-1(2H)-yl)-1,3-dimethyl-2-oxo-1,2-dihydroquinolin-7-yl)oxy)acetic acid] are under 25 nM and under 50 nM.
In the case of `Cc1cc2c(N3CCN(C)c4cc(-c5cnn(C)c5)ccc43)cc(OCC(=O)O)cc2n(C)c1=O` [Example 72, 2-((1,3-Dimethyl-5-(4-methyl-6-(1-methyl-1H-pyrazol-4-yl)-3,4-dihydroquinoxalin-1(2H)-yl)-2-oxo-1,2-dihydroquinolin-7-yl)oxy)acetic acid], the IC50 in assay [1] is under 25 nM; in assay [2] it was under 50 nM.
For the molecule `COc1cc(N2CCN(C)c3ccc(-c4cnn(C)c4)cc32)c2cc(C)c(=O)n(C)c2c1` [Example 80], the IC50 in assay [1] was over 50000 nM; in assay [2] it was over 10 nM.
For `COc1cc(N2CCN(C)c3cc(-c4cnn(C)c4)c(S(=O)(=O)NC(C)=O)cc32)c2cc(C)c(=O)n(C)c2c1` [Example 108] the same measures were under 25 nM and under 50 nM.
On to `Cc1cc2c(N3CCN(C)c4cc(-c5cnn(C)c5)ncc43)cc(N3CCOCC3)cc2n(C)c1=O` [Example 134], for which the IC50 in assay [1] is over 50000 nM; in assay [2], < 50 nM and 51 to 100 nM.
As to `Cc1cc2c(N3CCN(C)c4cc(-c5cnn(C)c5)ncc43)cc(N3C[C@@H]4C[C@H]3CO4)cc2n(C)c1=O` [Example 146, 7-((1S,4S)-2-oxa-5-azabicyclo[2.2.1]heptan-5-yl)-1,3-dimethyl-5-(1-methyl-7-(1-methyl-1H-pyrazol-4-yl)-2,3-dihydropyrido[3,4-b]pyrazin-4(1H)-yl)quinolin-2(1H)-one], the values for the 50% inhibitory concentration (IC50) in assay [1] and in assay [2] were over 50000 nM and under 50 nM, respectively.
Regarding `CNC(=O)c1ccc(-c2cc3c(cc2C(F)F)N(c2cccc4c2cc(C)c(=O)n4C)CCC3)cn1` [Example 176], the half-inhibitory concentration (IC50) was under 25 nM in assay [1] and under 50 nM in assay [2].
As for `Cc1cc2c(N3CCCc4cc(-c5cnn(C)c5)c(C(F)F)cc43)cc(N3CCOCC3)cc2n(C)c1=O` [Example 178], the IC50 was under 25 nM in assay [1] and under 50 nM in assay [2].
